From patent US10301308B2, “Azetidine derivatives for tau imaging” (Eli Lilly and Company, priority 2015, dated 2019)

What was measured:
[1] = Mouse PET/CT time activity curves; type: in vivo, CD-1 wild type mice
Method: Dynamic Micro-Positron Emission Tomography (mPET) images are obtained from CD-1 wild type mice using 3-(3-[18F]-fluoroazetidin-1-yl)-8-methylbenzo[4,5]imidazo[1,2-a]pyridine. Micro-Computed Tomography (mCT) of each subject is used as anatomical reference for image analysis. Biodistribution of the tracer in brain, muscle, bone, liver, and kidney is assessed by generating Time Activity Curves (TAC) using the fused mPET/mCT images. An INVEON multimodality scanner (Siemens, Germany) is used for mPET/mCT. All animal work is performed in accordance with the University of Sciences Institutional Animal Care & Use Committee-approved procedures.
Animals are anesthetized with 3% isoflurane/97% oxygen and are placed on the scanner bed. A short high-resolution CT scan is first performed for anatomical registration, followed by a 120-minute PET scan. During the PET scan a water heating system is placed underneath the bed to help maintain the body temperature. Within 3 minutes after the beginning of the PET acquisition, the [18F]-labeled compound 3-(3-[18F]-fluoroazetidin-1-yl)-8-methylbenzo[4,5]imidazo[1,2-a]pyridine is administered to the animals via tail vein injection (250 uCi in a total volume of 200 uL saline). A PET image is generated for each minute of the acquisition time. Uptake of the tracer is obtained by visually drawing regions of interest based on the fused PET/CT images, and the corresponding activity values are determined using the INVEON Research Workplace software (Siemens, Germany). All values are represented as percent injected dose per gram (% ID/g).
The mouse PET/CT time activity curves of 3-(4-(2-[18F]-fluoroethyl)piperidin-1-yl)-8-methoxybenzo[4,5]imidazo[1,2-a]pyridine (T821) (See FIG. 9) and of 3-(4-[18F]-fluoropiperidin-1-yl)-8-methoxybenzo[4,5]imidazo[1,2-a]pyridine (T798) (See FIG. 10) are obtained as described in Assay Example 7 (T821 and T798 are recited in US2011/0182812). […] Therefore, when imaging with T821 and/or T798, the undesirable non-tau PET signals from the skull bones could interfere with desired tau signals from the brain cortex. Thus, in addition to the lack of selectivity for T821 and T798, these compounds would further represent poor candidates for human brain tau PET tracers because of the interfering radioactivity signal from bone. […] The advantageous properties of Compound 8 are useful to provide enhanced tau PET imaging in humans. This combination of critical properties was not known and could not have been predicted from existing tau imaging compounds.

[2] = Clinical PET kinetic profile: brain uptake, washout, metabolism; type: in vivo, human
Method: Clinical evaluation of 3-(3-[18F]-Fluoroazetidin-1-yl)-8-methylbenzo[4,5]imidazo[1,2-a]pyridine (Compound 8) as a PET radioligand for imaging tau protein deposition in patients with AD or other neurodegenerative disorders is conducted in healthy volunteers. AD patients, or Chronic Traumatic Encephalopathy (CTE) subjects, by completion of one or more PET scans with Compound 8. Dynamic PET imaging is acquired on a Siemens ECAT EXACT HR+ over 150 minutes following Compound 8 or [18F]AV-1451 injection (0-60 and 90-150 minute imaging segments). Compound 8 or [18F]AV-1451 scans are acquired similarly in two imaging sessions. A brain MRI is also obtained. PET and MRI images are aligned and normalized, and ATLAS-based volumes of interest (VOI) are applied to the dynamic PET series. Compound 8 or [18F]AV-1451 are evaluated in terms of kinetic profile as well as target region to cerebellum standardized uptake value ratio (SUVr between 100-120 min) between healthy volunteers and AD or CTE subjects.

[3] = mouse PET/CT time activity curves
[4] = tail vein injection, 120-minute PET scan

bone uptake of radioactivity [1, 3]: negligible radioactivity signal in bone
brain entry compared with [18F]AV-1451 [1, 4]: higher % ID/g than [18F]AV-1451
clearance from brain [1, 4]: cleared quickly
intact parent remaining ([2]; 60 min post injection, n=7): 5±3%
max SUV relative to that of [18F]AV-1451 ([2]; healthy volunteers and AD subjects): ~50 % higher
peak brain uptake ([2]; human subjects, dynamic PET): ~8 SUV
Structure (SMILES): Cc1ccc2nc3cc(N4CC([18F])C4)ccn3c2c1 [Compound 8, 3-(3-[18F]-fluoroazetidin-1-yl)-8-methylbenzo[4,5]imidazo[1,2-a]pyridine]
brain uptake compared to T821 and T798 [1, 3]: significantly superior and surprising brain uptake
bone uptake of radioactivity ([1]; mouse PET/CT time activity curves, listed as 3-(3-[18F]-Fluoroazetidin-1-yl)-8-methylbenzo[4,5]imidazo[1,2-a]pyridine): no significant uptake of radioactivity in bone tissue
